Assay results as given in US20150218534A1, “MODIFIED DNA POLYMERASE” (TOYOBO CO., LTD., priority 2012, published 2015).

Test system: human genomic DNA (about 1.3 kb) with dUTP added
Test: Evaluation of uracil (dUTP) sensitivity by PCR with dUTP added to the reaction
Type: biochemical
Conditions: for Evaluation of dUTP resisitance on a 11-point scale: closer to 0 = stronger sensitivity to dUTP, closer to 10 = lower sensitivity, summary of Examples 1 to 3; for dUTP resistance: dUTP added to 0.5, 5, 50, 100, 200 μM, about 1.3 kb, 30 cycles, 1 U enzyme
Procedure, shortened: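 Uracil sensitivity is judged by whether a roughly 1.3 kb band still appears on ethidium bromide-stained agarose gel. Tolerated dUTP was tested at final 0.5 to 200 μM (0.5, 5, 50, 100, 200 μM), using 10 ng human genomic DNA, 1 U enzyme, 0.2 mM dNTPs and 1.5 mM MgSO4 in KOD-Plus-Ver. 2 buffer. Cycling: 94° C for 30 s, then 30 cycles of 98° C/65° C/68° C.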

| Substance | Evaluation of dUTP resisitance on a 11-point scale | dUTP resistance [µM] |
| --- | --- | --- |
| KOD H147E/P115Δ: KOD H147E (exo(+)) mutant lacking P115 | 0 | 0 |
| KOD I142R/Y7A/P36H: KOD I142R (exo(−)) mutant with Y7A and P36H | 8 | >200 |
| KOD N210D/P36R: KOD N210D (exo(−)) mutant with P36R | 8 | >200 |
| KOD H147E/P36R/V93K: KOD H147E (exo(+)) mutant with P36R and V93K | 0 | 0 |
| KOD H147E/Y7A/P115Δ: KOD H147E (exo(+)) mutant with Y7A and lacking P115 | 0 | 0 |
| KOD I142R/Y7A/V93K: KOD I142R (exo(−)) mutant with Y7A and V93K | 10 | >200 |
| KOD I142R/V93K: KOD I142R (exo(−)) mutant with V93K | 8 | >200 |
| KOD N210D/Y7A/P36R: KOD N210D (exo(−)) mutant with Y7A and P36R | 10 | >200 |
| KOD H147E/V93Q: KOD H147E (exo(+)) mutant with V93Q | 4 | 100 |
| KOD N210D/V93K: KOD N210D (exo(−)) mutant with V93K | 8 | >200 |
| KOD I142R/P36R: KOD I142R (exo(−)) mutant with P36R | 8 | >200 |
| KOD N210D/V93Q: KOD N210D (exo(−)) mutant with V93Q | 6 | >200 |
| KOD H147E/V93K: KOD H147E (exo(+)) mutant with V93K | 6 | >200 |
| KOD I142R/Y7A: KOD I142R (exo(−)) mutant with Y7A | 2 | 5 |
| KOD H147E/Y7A: KOD H147E (exo(+)) mutant with Y7A | 2 | 0.5 |
| KOD I142R/Y7A/P36R: KOD I142R (exo(−)) mutant with Y7A and P36R | 8 | >200 |
| KOD H147E/V93R: KOD H147E (exo(+)) mutant with V93R | 6 | >200 |
